From PubChem BioAssay (NCI)
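Interpolation was linear, between the two tested concentrations surrounding the appropriate level; five concentrations were tested over 48 hours in 96-well plates. GI50 = concentration required for 50% inhibition of growth. TGI: total growth inhibition.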

Legend:
Test in all cases: NCI tumour cell line growth inhibition, 48 h
OVCAR-5 ovarian = test system: OVCAR-5 ovarian
PC-3 prostate = test system: PC-3 prostate
CAKI-1 renal = test system: CAKI-1 renal
UO-31 renal = test system: UO-31 renal
MDA-MB-231 breast = test system: MDA-MB-231 breast
HCC-2998 colon = test system: HCC-2998 colon
ACHN renal = test system: ACHN renal
786-0 renal = test system: 786-0 renal
BT-549 breast = test system: BT-549 breast
NCI-H460 lung = test system: NCI-H460 lung
CCRF-CEM leukemia = test system: CCRF-CEM leukemia
DU-145 prostate = test system: DU-145 prostate
RXF 393 renal = test system: RXF 393 renal
LOX IMVI melanoma = test system: LOX IMVI melanoma
OVCAR-8 ovarian = test system: OVCAR-8 ovarian
SF-539 CNS = test system: SF-539 CNS
SK-MEL-2 melanoma = test system: SK-MEL-2 melanoma
SNB-19 CNS = test system: SNB-19 CNS
K-562 leukemia = test system: K-562 leukemia
SF-268 CNS = test system: SF-268 CNS
SK-OV-3 ovarian = test system: SK-OV-3 ovarian
HCT-116 colon = test system: HCT-116 colon
A498 renal = test system: A498 renal
NCI/ADR-RES ovarian = test system: NCI/ADR-RES ovarian
SNB-75 CNS = test system: SNB-75 CNS
UACC-62 melanoma = test system: UACC-62 melanoma
M14 melanoma = test system: M14 melanoma
OVCAR-4 ovarian = test system: OVCAR-4 ovarian
SW-620 colon = test system: SW-620 colon
NCI-H226 lung = test system: NCI-H226 lung
MCF7 breast = test system: MCF7 breast
OVCAR-3 ovarian = test system: OVCAR-3 ovarian
NCI-H522 lung = test system: NCI-H522 lung
SK-MEL-5 melanoma = test system: SK-MEL-5 melanoma
TK-10 renal = test system: TK-10 renal
SK-MEL-28 melanoma = test system: SK-MEL-28 melanoma
HOP-62 NSCLC = test system: HOP-62 NSCLC
SR leukemia = test system: SR leukemia
MOLT-4 leukemia = test system: MOLT-4 leukemia
HL-60(TB) leukemia = test system: HL-60(TB) leukemia
HT29 colon = test system: HT29 colon
T-47D breast = test system: T-47D breast
COLO 205 colon = test system: COLO 205 colon
KM12 colon = test system: KM12 colon
MALME-3M melanoma = test system: MALME-3M melanoma
UACC-257 melanoma = test system: UACC-257 melanoma
HS 578T breast = test system: HS 578T breast
A549 NSCLC = test system: A549 NSCLC
EKVX NSCLC = test system: EKVX NSCLC
RPMI-8226 leukemia = test system: RPMI-8226 leukemia
HOP-92 NSCLC = test system: HOP-92 NSCLC
SF-295 CNS = test system: SF-295 CNS
MDA-MB-435 = test system: MDA-MB-435
NCI-H23 lung = test system: NCI-H23 lung
U251 CNS = test system: U251 CNS
HCT-15 colon = test system: HCT-15 colon

## CCc1nc2cc(/C=C/C(=O)NO)c(F)cc2c(=O)n1CCc1ccccc1
OVCAR-5 ovarian
  GI50: 1.61 µM
  TGI: 12.6 µM
PC-3 prostate
  GI50: 3.96 µM
  TGI: 75.6 µM
CAKI-1 renal
  GI50: 0.822 µM
  TGI: 6.2 µM
UO-31 renal
  GI50: 0.735 µM
  TGI: 2.73 µM
MDA-MB-231 breast
  GI50: 0.668 µM
  TGI: 7.97 µM
HCC-2998 colon
  GI50: 1.57 µM
  TGI: 11.3 µM
ACHN renal
  GI50: 0.744 µM
  TGI: 2.9 µM
786-0 renal
  GI50: 1.7 µM
  TGI: 4.49 µM
BT-549 breast
  GI50: 2.32 µM
  TGI: 13.4 µM
NCI-H460 lung
  GI50: 0.349 µM
  TGI: 3.4 µM
CCRF-CEM leukemia
  GI50: 0.564 µM
  TGI: > 100 µM
DU-145 prostate
  GI50: 0.666 µM
  TGI: 10.5 µM
RXF 393 renal
  GI50: 0.99 µM
  TGI: 3.56 µM
LOX IMVI melanoma
  GI50: 0.488 µM
  TGI: 1.97 µM
OVCAR-8 ovarian
  GI50: 0.753 µM
  TGI: 9.22 µM
SF-539 CNS
  GI50: 0.874 µM
  TGI: 5.8 µM
SK-MEL-2 melanoma
  GI50: 2.64 µM
  TGI: 9.37 µM
SNB-19 CNS
  GI50: 1.32 µM
  TGI: 12.4 µM
K-562 leukemia
  GI50: 1.65 µM
  TGI: > 100 µM
SF-268 CNS
  GI50: 0.829 µM
  TGI: 5.27 µM
SK-OV-3 ovarian
  GI50: 1.68 µM
  TGI: 5.28 µM
HCT-116 colon
  GI50: 0.313 µM
  TGI: 2.91 µM
A498 renal
  GI50: 1.02 µM
  TGI: 3.39 µM
NCI/ADR-RES ovarian
  GI50: 0.227 µM
  TGI: 2.54 µM
SNB-75 CNS
  GI50: 2.41 µM
  TGI: 17.3 µM
UACC-62 melanoma
  GI50: 0.597 µM
  TGI: 3.38 µM
M14 melanoma
  GI50: 1.15 µM
  TGI: 3.8 µM
OVCAR-4 ovarian
  GI50: 0.689 µM
  TGI: 17.8 µM
SW-620 colon
  GI50: 0.619 µM
  TGI: 13.9 µM
NCI-H226 lung
  GI50: 1.25 µM
  TGI: 5.98 µM
MCF7 breast
  GI50: 0.407 µM
  TGI: 15.1 µM
OVCAR-3 ovarian
  GI50: 0.385 µM
  TGI: 4.76 µM
NCI-H522 lung
  GI50: 0.502 µM
  TGI: 3.98 µM
SK-MEL-5 melanoma
  GI50: 0.512 µM
  TGI: 2.52 µM
TK-10 renal
  GI50: 0.881 µM
  TGI: 5.49 µM
SK-MEL-28 melanoma
  GI50: 1.37 µM
  TGI: 6.97 µM
HOP-62 NSCLC
  GI50: 1.05 µM
  TGI: 5.98 µM
SR leukemia
  GI50: 0.731 µM
  TGI: > 100 µM
MOLT-4 leukemia
  GI50: 1.03 µM
  TGI: > 100 µM
HL-60(TB) leukemia
  GI50: 3.71 µM
  TGI: > 100 µM
HT29 colon
  GI50: 0.588 µM
  TGI: 12.5 µM
T-47D breast
  GI50: 0.29 µM
  TGI: 4.95 µM
COLO 205 colon
  GI50: 0.497 µM
  TGI: 3.14 µM
KM12 colon
  GI50: 2.14 µM
  TGI: 15.5 µM
MALME-3M melanoma
  GI50: 0.944 µM
  TGI: 10.4 µM
UACC-257 melanoma
  GI50: 2.12 µM
  TGI: 7.41 µM
HS 578T breast
  GI50: 2.95 µM
  TGI: 45.2 µM
A549 NSCLC
  GI50: 1.35 µM
  TGI: 5.39 µM
EKVX NSCLC
  GI50: 2.36 µM
  TGI: 10.7 µM
RPMI-8226 leukemia
  GI50: 0.654 µM
  TGI: 44.8 µM
HOP-92 NSCLC
  GI50: 2.51 µM
  TGI: 8.94 µM
SF-295 CNS
  GI50: 1.89 µM
  TGI: 4.35 µM
MDA-MB-435
  GI50: 1.2 µM
  TGI: 10.2 µM
NCI-H23 lung
  GI50: 1.17 µM
  TGI: 4.32 µM
U251 CNS
  GI50: 0.872 µM
  TGI: 3.18 µM
HCT-15 colon
  GI50: 0.461 µM
  TGI: 16.5 µM
